# Where two headings read alike, the source gives them in different places.
# Key:
# [1] = Tissue distribution in mice after oral administration; type: in vivo, female C57Bl/6 mice; conditions: oral 10 mg/kg; for concentration at 0.5 h / concentration at 1 h / concentration at 2 h / concentration at 3 h / concentration at 5 h / concentration at 7 h / concentration at 24 h: female, C57Bl/6, mouse
# Method: Limited tissue (liver, intestine) distribution studies were conducted in female C57Bl/6 mice ([…]) at 0.5, 1, 2, 3, 5, 7, and 24 hours following oral administration of compound of Formula 1 at a dose of 10 mg/kg formulated as a solution in 20% HP-β-CD. The plasma and the following tissues were harvested for compound concentration analysis: liver, whole ileum, and whole colon. The ileum and colon were flushed with saline prior to homogenization. Feces were collected over a period of 24 hours. All tissues (except plasma) were homogenized in sterile water and compound of Formula I concentrations were determined using LC-MS/MS. […] The concentration of compound of Formula I in feces was 125.6 μg at 24 hours post dose.
# [2] = Serum and colon concentrations in explant studies SS-1 and SS-2; type: in vivo, C57BL/6 mice; conditions: for concentration at 4 h: C57BL/6, mouse, po
# Method: (§1) C57BL/6 mice (6 to 8 weeks old) were randomized by weight and assigned to various treatment groups for each study. Mice were dosed orally with indicated doses of compound of Formula I. At the termination of the study, blood was collected via cardiocentesis, serum and washed proximal colon was prepared for PK analysis.
# The high colonic and low systemic exposure observed for compound of Formula I implicate the role for colonic drug levels as the key driver of the observed pharmacology.
# Data are presented as mean±SEM; N=5/group. BLOQ, below limit of quantification.
# [3] = target: T1, JAK1/Tyk2 (Homo sapiens, UniProt P23458+P29597); test: IFNα-induced pSTAT-3 in human whole blood; type: cell-based; conditions: mean
# T1 construct: endogenous in cells; host or cells: human whole blood
# T1 sequence (P23458 whole entry): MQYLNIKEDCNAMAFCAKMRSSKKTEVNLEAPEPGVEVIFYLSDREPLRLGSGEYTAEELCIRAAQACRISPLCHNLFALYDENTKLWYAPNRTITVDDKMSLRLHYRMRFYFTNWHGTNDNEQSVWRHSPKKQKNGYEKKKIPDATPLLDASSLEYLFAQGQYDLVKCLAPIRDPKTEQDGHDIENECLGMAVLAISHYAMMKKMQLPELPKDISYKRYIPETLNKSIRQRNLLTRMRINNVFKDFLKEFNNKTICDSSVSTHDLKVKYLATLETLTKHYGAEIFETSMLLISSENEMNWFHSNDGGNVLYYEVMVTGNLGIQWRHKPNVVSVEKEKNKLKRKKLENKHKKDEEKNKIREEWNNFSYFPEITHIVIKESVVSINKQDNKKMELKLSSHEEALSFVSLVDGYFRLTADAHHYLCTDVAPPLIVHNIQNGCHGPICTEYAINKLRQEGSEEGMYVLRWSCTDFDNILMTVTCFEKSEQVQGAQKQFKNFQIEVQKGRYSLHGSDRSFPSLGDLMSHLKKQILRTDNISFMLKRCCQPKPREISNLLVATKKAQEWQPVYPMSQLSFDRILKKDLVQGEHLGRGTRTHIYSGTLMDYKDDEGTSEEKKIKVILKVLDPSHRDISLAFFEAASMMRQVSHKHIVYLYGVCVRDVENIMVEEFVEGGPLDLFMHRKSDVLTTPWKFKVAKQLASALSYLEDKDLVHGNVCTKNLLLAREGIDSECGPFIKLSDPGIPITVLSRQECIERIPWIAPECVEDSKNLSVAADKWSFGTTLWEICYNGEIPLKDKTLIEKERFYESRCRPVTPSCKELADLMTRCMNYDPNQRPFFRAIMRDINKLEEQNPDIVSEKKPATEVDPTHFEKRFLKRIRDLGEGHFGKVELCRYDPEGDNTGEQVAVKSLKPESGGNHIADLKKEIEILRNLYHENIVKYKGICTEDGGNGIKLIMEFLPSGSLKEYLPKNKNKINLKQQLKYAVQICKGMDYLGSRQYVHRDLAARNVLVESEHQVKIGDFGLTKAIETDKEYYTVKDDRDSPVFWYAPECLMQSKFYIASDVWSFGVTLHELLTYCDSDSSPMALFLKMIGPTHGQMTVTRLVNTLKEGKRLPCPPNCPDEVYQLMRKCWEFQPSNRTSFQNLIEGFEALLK
# T1 sequence (P29597 whole entry): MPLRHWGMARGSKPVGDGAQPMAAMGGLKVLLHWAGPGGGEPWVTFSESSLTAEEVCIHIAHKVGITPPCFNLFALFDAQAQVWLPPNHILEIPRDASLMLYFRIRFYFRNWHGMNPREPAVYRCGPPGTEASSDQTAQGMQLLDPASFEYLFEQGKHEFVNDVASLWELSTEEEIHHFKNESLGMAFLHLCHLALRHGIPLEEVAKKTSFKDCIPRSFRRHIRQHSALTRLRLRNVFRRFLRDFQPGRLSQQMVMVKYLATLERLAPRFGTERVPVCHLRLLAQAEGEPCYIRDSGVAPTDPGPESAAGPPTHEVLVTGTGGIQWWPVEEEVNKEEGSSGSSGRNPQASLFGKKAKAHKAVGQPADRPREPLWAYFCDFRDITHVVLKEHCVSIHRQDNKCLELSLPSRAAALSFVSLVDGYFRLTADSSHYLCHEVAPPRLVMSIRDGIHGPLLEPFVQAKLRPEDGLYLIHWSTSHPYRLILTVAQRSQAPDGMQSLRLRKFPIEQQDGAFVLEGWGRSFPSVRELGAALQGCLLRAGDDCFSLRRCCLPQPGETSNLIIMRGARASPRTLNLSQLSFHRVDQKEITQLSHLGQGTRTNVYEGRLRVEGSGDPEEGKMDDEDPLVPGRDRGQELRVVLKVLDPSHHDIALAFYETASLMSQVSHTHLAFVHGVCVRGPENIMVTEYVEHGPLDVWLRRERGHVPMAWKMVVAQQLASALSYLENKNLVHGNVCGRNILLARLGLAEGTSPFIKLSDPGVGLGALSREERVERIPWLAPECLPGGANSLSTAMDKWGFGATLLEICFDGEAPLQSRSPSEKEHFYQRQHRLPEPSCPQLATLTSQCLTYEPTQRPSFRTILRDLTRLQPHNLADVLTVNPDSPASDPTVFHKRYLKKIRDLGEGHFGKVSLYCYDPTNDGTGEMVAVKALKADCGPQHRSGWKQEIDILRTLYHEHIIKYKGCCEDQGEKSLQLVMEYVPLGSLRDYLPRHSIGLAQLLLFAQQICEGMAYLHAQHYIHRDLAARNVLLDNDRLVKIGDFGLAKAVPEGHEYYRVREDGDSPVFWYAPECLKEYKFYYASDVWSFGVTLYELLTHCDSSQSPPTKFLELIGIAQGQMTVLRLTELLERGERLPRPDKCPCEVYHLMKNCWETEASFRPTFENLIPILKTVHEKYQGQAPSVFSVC
# T1 sequence (P17181 28-557 partner): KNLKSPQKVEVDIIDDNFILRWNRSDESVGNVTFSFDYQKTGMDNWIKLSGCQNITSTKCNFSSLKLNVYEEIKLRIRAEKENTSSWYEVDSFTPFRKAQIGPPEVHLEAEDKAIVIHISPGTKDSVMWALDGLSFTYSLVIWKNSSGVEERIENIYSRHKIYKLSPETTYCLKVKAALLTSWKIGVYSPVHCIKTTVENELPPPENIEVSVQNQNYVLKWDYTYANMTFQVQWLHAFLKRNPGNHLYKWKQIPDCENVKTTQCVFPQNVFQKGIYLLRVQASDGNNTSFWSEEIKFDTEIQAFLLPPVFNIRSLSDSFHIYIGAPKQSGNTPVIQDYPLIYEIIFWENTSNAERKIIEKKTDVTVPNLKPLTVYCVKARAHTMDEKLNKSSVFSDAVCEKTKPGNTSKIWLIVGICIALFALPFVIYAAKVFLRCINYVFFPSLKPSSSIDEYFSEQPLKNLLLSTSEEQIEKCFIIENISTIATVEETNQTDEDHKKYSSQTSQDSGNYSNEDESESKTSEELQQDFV
# T1 sequence (P48551 27-515 partner): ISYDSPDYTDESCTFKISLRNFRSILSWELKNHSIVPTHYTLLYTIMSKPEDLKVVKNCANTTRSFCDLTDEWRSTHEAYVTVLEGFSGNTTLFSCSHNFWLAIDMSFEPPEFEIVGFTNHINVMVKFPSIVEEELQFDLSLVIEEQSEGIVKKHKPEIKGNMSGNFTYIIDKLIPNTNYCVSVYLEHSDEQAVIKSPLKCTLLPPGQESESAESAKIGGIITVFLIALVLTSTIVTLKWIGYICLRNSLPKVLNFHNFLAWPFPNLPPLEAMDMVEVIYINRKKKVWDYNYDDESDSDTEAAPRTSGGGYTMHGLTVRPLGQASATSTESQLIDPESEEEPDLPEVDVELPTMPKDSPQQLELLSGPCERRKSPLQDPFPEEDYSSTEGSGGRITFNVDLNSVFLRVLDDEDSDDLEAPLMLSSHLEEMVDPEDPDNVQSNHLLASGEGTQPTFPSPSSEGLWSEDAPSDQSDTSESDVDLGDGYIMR
# Method: Compound of Formula I presents low levels of systemic exposure after oral administration. To understand the relationship between systemic exposure and target engagement in human studies, the inhibition of cytokine-induced pSTAT-3 in human whole blood was measured with such compound. In human whole blood, compound of Formula I in a concentration-dependent manner inhibited the JAK1, JAK2, JAK3, and Tyk2 homo- and heterodimers downstream of IFNα (JAK1/Tyk2), thrombopoietin (TPO) (JAK2/JAK2), and IL-21 (JAK1/JAK3) signaling.
# [4] = tested on: IL-22/IL-6/IFNα-induced pSTAT-3 response; test: Ex vivo mouse colon explant model (IL-22/IL-6/IFNα) after oral dosing; type: in vivo, C57BL/6 mice; conditions: for inhibition at 0.5 mg/kg: oral 0.5 mg/kg; for inhibition at 2.5 mg/kg: oral 2.5 mg/kg; for inhibition at 5 mg/kg: oral 5 mg/kg; for inhibition at 25 mg/kg: oral 25 mg/kg
# From the text: To understand the potential of local, enteric-selective JAK inhibitors to inhibit STAT signaling in colon tissue, two pharmacokinetic/pharmacodynamic (PK/PD) studies were developed. The first involved the combined intraperitoneal administration of IL-12 and IL-18 in mice which induces a systemic inflammatory response resulting in activation of the JAK/STAT pathway in colonic tissue which can be monitored by robust phosphorylation of STAT3 three hours after challenge. The second PK/PD model involves the ex vivo stimulation of mouse colon tissue with a cocktail of cytokines (IL-22, IL-6, and IFNα), measuring the inhibition of STAT3 phosphorylation after oral dosing of compound of Formula I.
# In addition to the IL-12/IL-18 model described above, local efficacy of compound of Formula I was further established in a mouse cytokine mixture (IL-22/IL-6/IFNα) colon explant model. A combination of IL-22, IL-6 and IFNα induced a rapid and robust pSTAT-3 response in mouse colon explants ex vivo 1 hour post challenge. This study aimed at examining the dose response and duration of action of compound of Formula I on IL 22/IL 6/IFNα-induced pSTAT-3 response in an ex vivo mouse colon explant model.
# as §1
# Distal colon explants (approximately 3 mm^2) were either untreated or treated with cytokines (IL 6, IL-22, IFNα at 100 ng/mL each). Following stimulation for 1 hour, tissue was snap-frozen for homogenization and assayed for pSTAT-3.
# [5] = colon, mean ± SD, read-out: Colon concentration
# [6] = ileum, mean ± SD, read-out: Ileum concentration
# [7] = liver, mean ± SD, read-out: Liver concentration
# [8] = plasma, mean ± SD, read-out: Plasma concentration
# [9] = SS-1, mice, read-out: inhibition of IL-22/IL-6/IFNα-stimulated pSTAT-3 response in colon explants
# [10] = SS-1, mice, read-out: inhibition of basal pSTAT-3 response in colon explants
# [11] = SS-2, mice, read-out: inhibition of IL-22/IL-6/IFNα-stimulated pSTAT-3 in colon explants
# [12] = SS-2, mice, read-out: inhibition of basal pSTAT-3 in colon explants
smiles,measurement,setting,value
"CC(C)(O)CNC(=O)Cc1nc2cnc3[nH]ccc3c2n1[C@H]1CC[C@H](CC#N)CC1 [Compound of Formula I, 2-(1-((1r,4r)-4-(Cyanomethyl)cyclohexyl)-1,6-dihydroimidazo[4,5-d]pyrrolo[2,3-b]pyridin-2-yl)-N-(2-hydroxy-2-methylpropyl)acetamide]",concentration at 0.5 h,"[1]; colon, N = 2, read-out: Colon concentration",94.2 ng/g
same,concentration at 1 h,[1]; [5],5110 ng/g
same,concentration at 2 h,[1]; [5],6620 ng/g
same,concentration at 3 h,[1]; [5],7760 ng/g
same,concentration at 5 h,[1]; [5],8450 ng/g
same,concentration at 7 h,[1]; [5],3790 ng/g
same,concentration at 24 h,"[1]; colon, 24 h, mean ± SD, read-out: Colon concentration",195 ± 120 ng/g
same,concentration at 0.5 h,[1]; [6],73.8 ± 11.6 ng/g
same,concentration at 1 h,[1]; [6],22700 ng/g
same,concentration at 2 h,[1]; [6],12000 ng/g
same,concentration at 3 h,[1]; [6],16400 ng/g
same,concentration at 5 h,[1]; [6],3440 ng/g
same,concentration at 7 h,[1]; [6],2250 ng/g
same,concentration at 24 h,"[1]; ileum, 24 h, mean ± SD, read-out: Ileum concentration",87.6 ± 17.8 ng/g
same,concentration at 0.5 h,[1]; [7],34.8 ± 16.5 ng/g
same,concentration at 1 h,[1]; [7],189 ± 304 ng/g
same,concentration at 2 h,[1]; [7],84.5 ± 114 ng/g
same,concentration at 3 h,[1]; [7],23.3 ± 0.8 ng/g
same,concentration at 5 h,[1]; [7],16.8 ± 8.8 ng/g
same,concentration at 7 h,"[1]; liver, N = 2, read-out: Liver concentration",24 ng/g
same,concentration at 0.5 h,[1]; [8],3.5 ± 1.8 ng/mL
same,concentration at 1 h,[1]; [8],2.6 ± 0.9 ng/mL
same,concentration at 2 h,[1]; [8],2.3 ± 0.2 ng/mL
same,concentration at 3 h,[1]; [8],3.2 ± 1.7 ng/mL
same,concentration at 5 h,[1]; [8],2.1 ± 0.9 ng/mL
same,concentration at 7 h,[1]; [8],6 ± 4.9 ng/mL
same,Liver concentration,"[1]; 24 h, BLOQ (1 ng/mL)",BLOQ^b
same,Plasma concentration,"[1]; 24 h, BLOQ (1 ng/mL)",BLOQ^b
same,concentration in feces,[1]; 24 hours post dose,125.6 µg
same,concentration at 4 h,"[2]; colon, 0.25 mg/kg, SS-1, mice, 4 hours post oral dose 0.25 mg/kg, mean±SEM, read-out: Colon concentration",446 ± 51.5 ng/g
same,concentration at 4 h,"[2]; colon, 0.25 mg/kg, SS-2, mice, 4 hours post oral dose 0.25 mg/kg, mean±SEM, read-out: Colon concentration",262 ± 30.5 ng/g
same,concentration at 4 h,"[2]; colon, 2.5 mg/kg, SS-1, mice, 4 hours post oral dose 2.5 mg/kg, mean±SEM, read-out: Colon concentration",2840 ± 716 ng/g
same,concentration at 4 h,"[2]; colon, 2.5 mg/kg, SS-2, mice, 4 hours post oral dose 2.5 mg/kg, mean±SEM, read-out: Colon concentration",1320 ± 270 ng/g
same,concentration at 4 h,"[2]; colon, 5 mg/kg, SS-1, mice, 4 hours post oral dose 5 mg/kg, mean±SEM, read-out: Colon concentration",4630 ± 705 ng/g
same,concentration at 4 h,"[2]; colon, 5 mg/kg, SS-2, mice, 4 hours post oral dose 5 mg/kg, mean±SEM, read-out: Colon concentration",4670 ± 953 ng/g
same,concentration at 4 h,"[2]; colon, 25 mg/kg, SS-1, mice, 4 hours post oral dose 25 mg/kg, mean±SEM, read-out: Colon concentration",27500 ± 6130 ng/g
same,concentration at 4 h,"[2]; colon, 25 mg/kg, SS-2, mice, 4 hours post oral dose 25 mg/kg, mean±SEM, read-out: Colon concentration",22900 ± 4150 ng/g
same,concentration at 4 h,"[2]; serum, 5 mg/kg, SS-2, mice, 4 hours post oral dose 5 mg/kg, mean±SEM, read-out: Serum concentration",10.3 ± 6.9 nM
same,concentration at 4 h,"[2]; serum, 25 mg/kg, SS-1, mice, 4 hours post oral dose 25 mg/kg, mean±SEM, read-out: Serum concentration",4.9 ± 2.1 nM
same,concentration at 4 h,"[2]; serum, 25 mg/kg, SS-2, mice, 4 hours post oral dose 25 mg/kg, mean±SEM, read-out: Serum concentration",6.3 ± 2.9 nM
same,concentration at 4 h,"[2]; serum, SS-1 and SS-2, all oral doses, 4 hours post dose, read-out: systemic (serum) exposure",≤ 10.3 nM
same,Serum concentration,"[2]; SS-1, mice, 4 hours post oral dose 0.25 mg/kg, mean±SEM",BLOQ
same,Serum concentration,"[2]; SS-1, mice, 4 hours post oral dose 2.5 mg/kg, mean±SEM",BLOQ
same,Serum concentration,"[2]; SS-1, mice, 4 hours post oral dose 5 mg/kg, mean±SEM",BLOQ
same,Colon concentration,"[2]; SS-1, mice, 4 hours post oral dose 25 mg/kg, mean±SEM, 25 mg/kg",27488.1 ± 6128.6 ng/g
same,Serum concentration,"[2]; SS-2, mice, 4 hours post oral dose 0.25 mg/kg, mean±SEM",BLOQ
same,Serum concentration,"[2]; SS-2, mice, 4 hours post oral dose 2.5 mg/kg, mean±SEM",BLOQ
same,Colon concentration,"[2]; SS-2, mice, 4 hours post oral dose 25 mg/kg, mean±SEM, 25 mg/kg",22929.6 ± 4146.6 ng/g
same,IC50,[3],105 nM
same,inhibition at 0.5 mg/kg,[4]; [9],42.7%
same,inhibition at 0.5 mg/kg,[4]; [10],54.3%
same,inhibition at 2.5 mg/kg,[4]; [9],74.9%
same,inhibition at 2.5 mg/kg,[4]; [10],74.4%
same,inhibition at 5 mg/kg,[4]; [9],83.8%
same,inhibition at 5 mg/kg,[4]; [10],78.6%
same,inhibition at 25 mg/kg,[4]; [9],93.8%
same,inhibition at 25 mg/kg,[4]; [10],89.5%
same,inhibition at 0.5 mg/kg,[4]; [11],5.5%
same,inhibition at 0.5 mg/kg,[4]; [12],36.7%
same,inhibition at 2.5 mg/kg,[4]; [11],62%
same,inhibition at 2.5 mg/kg,[4]; [12],66.2%
same,inhibition at 5 mg/kg,[4]; [11],68.1%
same,inhibition at 5 mg/kg,[4]; [12],71.3%
same,inhibition at 25 mg/kg,[4]; [11],89.8%
same,inhibition at 25 mg/kg,[4]; [12],83.8%
